# System: GADD153 mRNA
# Assay: GADD153 mRNA level in 2008 ovarian carcinoma cells after paclitaxel
# Assay type: cell-based
# Settings: concentration 10 times the IC50, 24 hours
smiles,measurement,value
CC(=O)O[C@H]1C(=O)[C@@]2(C)[C@H]([C@H](OC(=O)c3ccccc3)[C@]3(O)C[C@H](OC(=O)[C@H](O)[C@@H](NC(=O)c4ccccc4)c4ccccc4)C(C)=C1C3(C)C)[C@]1(OC(C)=O)CO[C@@H]1C[C@@H]2O [paclitaxel],increase in GADD153 mRNA level,5.7±2.5 fold

# Source: patent US6447997B1, “Gene coding for GADD153 as a clinical diagnostic and prognostic in cancer therapy” (Research Development Foundation, priority 1997, dated 2002)
